Laboratory results published in ChEMBL document CHEMBL1201862, “PubChem BioAssay data set” (2004).
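In this assay, cells in 96-well plates receive the compound at five concentrations for 48 hours. Endpoints are linearly interpolated between the surrounding concentrations. Abbreviation: GI50, concentration required for 50% inhibition of growth.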 Activity calls are given as the source filed them. No stated cut-off is given here; in the data, active = GI50 up to about 1.1 µM and inactive = higher.

Legend:
Test in all cases: NCI-60 cell line screen, 48 h
COLO 205 = system: COLO 205
NCI-H23 = system: NCI-H23
OVCAR-5 = system: OVCAR-5
OVCAR-8 = system: OVCAR-8
NCI/ADR-RES = system: NCI/ADR-RES
SK-OV-3 = system: SK-OV-3
SK-MEL-5 = system: SK-MEL-5
MDA-N = system: MDA-N
BT-549 = system: BT-549
A549 = system: A549
Malme-3M = system: Malme-3M
CAKI-1 = system: CAKI-1
MDA-MB-435 = system: MDA-MB-435
RXF 393 = system: RXF 393
UACC-257 = system: UACC-257
HOP-92 = system: HOP-92
SF-268 = system: SF-268
HL-60 = system: HL-60
SN12C = system: SN12C
MCF7 = system: MCF7
UO-31 = system: UO-31
HCT-116 = system: HCT-116
SW-620 = system: SW-620
EKVX = system: EKVX
ACHN = system: ACHN
NCI-H522 = system: NCI-H522
UACC-62 = system: UACC-62
T47D = system: T47D
PC-3 = system: PC-3
CCRF-CEM = system: CCRF-CEM
HT-29 = system: HT-29
MDA-MB-231 = system: MDA-MB-231
NCI-H460 = system: NCI-H460
M14 = system: M14
RPMI-8226 = system: RPMI-8226
A498 = system: A498
TK-10 = system: TK-10
K562 = system: K562
SK-MEL-28 = system: SK-MEL-28
OVCAR-4 = system: OVCAR-4
SNB-19 = system: SNB-19
HCC 2998 = system: HCC 2998
Hs-578T = system: Hs-578T
U-251 = system: U-251
OVCAR-3 = system: OVCAR-3
SF-295 = system: SF-295
HOP-62 = system: HOP-62
LOX IMVI = system: LOX IMVI
NCI-H226 = system: NCI-H226
SK-MEL-2 = system: SK-MEL-2
MOLT-4 = system: MOLT-4
IGROV-1 = system: IGROV-1
KM12 = system: KM12
HCT-15 = system: HCT-15
DU-145 = system: DU-145
SF-539 = system: SF-539
SNB-75 = system: SNB-75
SR = system: SR
786-0 = system: 786-0

Measured: GI50

CC(C)(C)OC(=O)CCCCCNC(=O)CCCCCNC(=O)CCC(CN(CC(=O)OCc1ccccc1)CC(=O)OCc1ccccc1)N(CC(=O)OCc1ccccc1)CC(=O)OCc1ccccc1 (stereo not given)
> 100 µM: HCT-15
inactive: COLO 205 > 100 µM | NCI-H23 68.1 µM | OVCAR-5 > 100 µM | OVCAR-8 > 100 µM | NCI/ADR-RES > 100 µM | SK-OV-3 > 100 µM | SK-MEL-5 > 100 µM | MDA-N > 100 µM | BT-549 > 100 µM | A549 > 100 µM | Malme-3M > 100 µM | CAKI-1 43.8 µM | MDA-MB-435 > 100 µM | RXF 393 > 100 µM | UACC-257 > 100 µM | HOP-92 32.9 µM | SF-268 > 100 µM | HL-60 61.1 µM | SN12C > 100 µM | MCF7 > 100 µM | UO-31 71.1 µM | HCT-116 > 100 µM | SW-620 > 100 µM | EKVX > 100 µM | ACHN > 100 µM | NCI-H522 > 100 µM | UACC-62 > 100 µM | T47D > 100 µM | PC-3 > 100 µM | CCRF-CEM 31.4 µM | HT-29 > 100 µM | MDA-MB-231 > 100 µM | NCI-H460 14.6 µM | M14 > 100 µM | RPMI-8226 11.8 µM | A498 > 100 µM | TK-10 > 100 µM | K562 25.2 µM | SK-MEL-28 > 100 µM | OVCAR-4 > 100 µM | SNB-19 > 100 µM | HCC 2998 > 100 µM | Hs-578T > 100 µM | U-251 > 100 µM | OVCAR-3 > 100 µM | SF-295 > 100 µM | HOP-62 > 100 µM | LOX IMVI > 100 µM | NCI-H226 > 100 µM | SK-MEL-2 > 100 µM | MOLT-4 20.1 µM | IGROV-1 > 100 µM | KM12 > 100 µM | DU-145 > 100 µM | SF-539 > 100 µM | SNB-75 20.2 µM | SR 20.5 µM | 786-0 > 100 µM

Sc1nn2c(COc3cccc(OCc4nnc5sc(S)nn45)c3)nnc2s1
52.8 µM: HCT-15
inactive: COLO 205 > 100 µM | NCI-H23 > 100 µM | OVCAR-5 > 100 µM | OVCAR-8 > 100 µM | NCI/ADR-RES > 100 µM | SK-OV-3 > 100 µM | MDA-N > 100 µM | BT-549 > 100 µM | A549 > 100 µM | Malme-3M > 100 µM | CAKI-1 > 100 µM | MDA-MB-435 > 100 µM | RXF 393 > 100 µM | UACC-257 > 100 µM | HOP-92 > 100 µM | SF-268 > 100 µM | HL-60 7.08 µM | SN12C > 100 µM | MCF7 76.2 µM | UO-31 > 100 µM | HCT-116 > 100 µM | SW-620 37.5 µM | EKVX > 100 µM | ACHN > 100 µM | NCI-H522 64.6 µM | UACC-62 > 100 µM | T47D > 100 µM | PC-3 > 100 µM | CCRF-CEM 28.2 µM | HT-29 62.5 µM | MDA-MB-231 > 100 µM | NCI-H460 31.8 µM | M14 > 100 µM | RPMI-8226 73.5 µM | A498 > 100 µM | TK-10 > 100 µM | K562 7.89 µM | SK-MEL-28 > 100 µM | OVCAR-4 > 100 µM | SNB-19 > 100 µM | HCC 2998 > 100 µM | Hs-578T > 100 µM | U-251 > 100 µM | OVCAR-3 > 100 µM | SF-295 > 100 µM | HOP-62 > 100 µM | LOX IMVI 34.4 µM | NCI-H226 > 100 µM | SK-MEL-2 > 100 µM | MOLT-4 2.09 µM | IGROV-1 > 100 µM | KM12 > 100 µM | DU-145 > 100 µM | SF-539 52.1 µM | SNB-75 > 100 µM | SR 17.4 µM | 786-0 41.4 µM

C[N+](C)([O-])CCCNc1c2ccccc2nc2cccc([N+](=O)[O-])c12
active: COLO 205 0.143 µM | NCI-H23 0.156 µM | OVCAR-5 0.355 µM | OVCAR-8 0.635 µM | SK-OV-3 0.631 µM | SK-MEL-5 0.161 µM | MDA-N 0.173 µM | BT-549 0.703 µM | A549 0.175 µM | Malme-3M 0.173 µM | MDA-MB-435 0.226 µM | RXF 393 0.163 µM | UACC-257 0.536 µM | HOP-92 0.31 µM | SF-268 0.274 µM | HL-60 0.351 µM | SN12C 0.265 µM | MCF7 0.113 µM | HCT-116 0.228 µM | SW-620 0.203 µM | EKVX 0.28 µM | ACHN 0.324 µM | NCI-H522 0.115 µM | UACC-62 0.219 µM | T47D 0.257 µM | PC-3 0.219 µM | CCRF-CEM 0.249 µM | HT-29 0.179 µM | MDA-MB-231 0.33 µM | NCI-H460 0.142 µM | M14 0.258 µM | RPMI-8226 0.313 µM | A498 0.164 µM | TK-10 0.982 µM | K562 0.253 µM | SK-MEL-28 0.684 µM | OVCAR-4 0.288 µM | SNB-19 0.409 µM | HCC 2998 0.164 µM | Hs-578T 0.938 µM | U-251 0.305 µM | OVCAR-3 0.308 µM | SF-295 0.592 µM | HOP-62 0.385 µM | LOX IMVI 0.51 µM | NCI-H226 0.313 µM | SK-MEL-2 0.214 µM | MOLT-4 0.142 µM | IGROV-1 0.259 µM | KM12 0.412 µM | DU-145 0.299 µM | SF-539 1.07 µM | SNB-75 0.456 µM | SR 0.0653 µM | 786-0 0.166 µM
inactive: NCI/ADR-RES 8.2 µM | CAKI-1 1.72 µM | UO-31 1.41 µM
0.457 µM: HCT-15

COc1ccc(C2C3=C(COC3=O)OC(C)(C)Oc3cc4c(cc32)OCO4)cc1OC (stereo not given)
inactive: COLO 205 20.9 µM | NCI-H23 36.8 µM | OVCAR-5 > 77.8 µM | OVCAR-8 46.1 µM | NCI/ADR-RES 19.9 µM | SK-OV-3 50.5 µM | SK-MEL-5 30.3 µM | MDA-N 19.8 µM | BT-549 32.3 µM | A549 36.8 µM | Malme-3M 29.7 µM | CAKI-1 43.6 µM | MDA-MB-435 17.3 µM | RXF 393 31.5 µM | UACC-257 39.4 µM | HOP-92 37.5 µM | SF-268 21.1 µM | HL-60 29.2 µM | SN12C 51.9 µM | MCF7 40.1 µM | UO-31 47.9 µM | HCT-116 34.6 µM | SW-620 33.3 µM | EKVX 28.5 µM | ACHN 51.5 µM | NCI-H522 32.4 µM | UACC-62 34 µM | T47D 37.5 µM | PC-3 28.1 µM | CCRF-CEM 37.1 µM | HT-29 39.4 µM | MDA-MB-231 33.8 µM | NCI-H460 37.1 µM | M14 28.2 µM | RPMI-8226 41.6 µM | A498 23.1 µM | TK-10 50.1 µM | K562 30.8 µM | SK-MEL-28 53.2 µM | OVCAR-4 > 53.8 µM | SNB-19 44.4 µM | HCC 2998 78 µM | Hs-578T 31.6 µM | U-251 39.1 µM | OVCAR-3 33.2 µM | SF-295 29 µM | HOP-62 63.5 µM | LOX IMVI 40.8 µM | NCI-H226 > 78.7 µM | SK-MEL-2 34.4 µM | MOLT-4 34.8 µM | IGROV-1 36.9 µM | KM12 24 µM | DU-145 42.1 µM | SF-539 29.1 µM | SNB-75 13.2 µM | SR 29.2 µM | 786-0 41.9 µM
38.5 µM: HCT-15
